According to ChEMBL document CHEMBL1201862, “PubChem BioAssay data set” (2004):
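Method: 48-hour compound exposure of cells in 96-well plates, five concentrations, linear interpolation of endpoints. At the GI50, growth is halved.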 Active and inactive are the calls of the source. Rule as the data show it: active = GI50 up to about 1.1 µM and inactive = higher.

Tests used:
Experiment in all cases: inhibition of tumour cell growth, NCI panel, 48 h
HCT-15 = test system: HCT-15
XF498 = test system: XF498
NCI-H460 = test system: NCI-H460
SK-OV-3 = test system: SK-OV-3
HOP-92 = test system: HOP-92
Malme-3M = test system: Malme-3M
DLD-1 = test system: DLD-1
RPMI-8226 = test system: RPMI-8226
HOP-62 = test system: HOP-62
SN12C = test system: SN12C
SK-MEL-28 = test system: SK-MEL-28
NCI-H23 = test system: NCI-H23
UO-31 = test system: UO-31
OVCAR-4 = test system: OVCAR-4
U-251 = test system: U-251
SF-539 = test system: SF-539
786-0 = test system: 786-0
EKVX = test system: EKVX
HL-60 = test system: HL-60
SNB-19 = test system: SNB-19
HCC 2998 = test system: HCC 2998
SW-620 = test system: SW-620
DMS-114 = test system: DMS-114
UACC-257 = test system: UACC-257
A549 = test system: A549
HOP-18 = test system: HOP-18
SK-MEL-5 = test system: SK-MEL-5
SK-MEL-2 = test system: SK-MEL-2
LXFL 529 = test system: LXFL 529
SF-268 = test system: SF-268
CAKI-1 = test system: CAKI-1
K562 = test system: K562
RXF 393 = test system: RXF 393
LOX IMVI = test system: LOX IMVI
OVCAR-8 = test system: OVCAR-8
SR = test system: SR
HCT-116 = test system: HCT-116
TK-10 = test system: TK-10
NCI-H522 = test system: NCI-H522
KM12 = test system: KM12
ACHN = test system: ACHN
M19-MEL = test system: M19-MEL
SF-295 = test system: SF-295
CCRF-CEM = test system: CCRF-CEM
UACC-62 = test system: UACC-62
M14 = test system: M14
OVCAR-3 = test system: OVCAR-3
SNB-78 = test system: SNB-78
IGROV-1 = test system: IGROV-1
MOLT-4 = test system: MOLT-4
HT-29 = test system: HT-29
SNB-75 = test system: SNB-75
KM-20L2 = test system: KM-20L2
A498 = test system: A498
COLO 205 = test system: COLO 205
OVCAR-5 = test system: OVCAR-5

In the case of `CC(=O)/C(=C\c1ccco1)C(=O)Nc1ccccc1`, the GI50 (HCT-15) is reported as over 100 µM, the GI50 (XF498) is reported as > 100 µM (inactive) and the GI50 (NCI-H460) is reported as > 100 µM (inactive). For the same compound, the GI50 (SK-OV-3) was > 100 µM (inactive), the GI50 (HOP-92) was > 100 µM (inactive) and the GI50 (Malme-3M) was > 100 µM (inactive). For the same compound, the GI50 (DLD-1) was > 100 µM (inactive), the GI50 (RPMI-8226) was > 100 µM (inactive) and the GI50 (HOP-62) was > 100 µM (inactive). The GI50 (SN12C) was > 100 µM (inactive), the GI50 (SK-MEL-28) was > 100 µM (inactive) and the GI50 (NCI-H23) was > 100 µM (inactive). The GI50 (UO-31) was > 100 µM (inactive), the GI50 (OVCAR-4) was > 100 µM (inactive) and the GI50 (U-251) was > 100 µM (inactive). The GI50 (SF-539) was > 100 µM (inactive), the GI50 (786-0) was > 100 µM (inactive) and the GI50 (EKVX) was > 100 µM (inactive). For the same compound, the GI50 (HL-60) was > 100 µM (inactive), the GI50 (SNB-19) was > 100 µM (inactive) and the GI50 (HCC 2998) was > 100 µM (inactive). The GI50 (SW-620) was > 100 µM (inactive), the GI50 (DMS-114) was > 100 µM (inactive) and the GI50 (UACC-257) was > 100 µM (inactive). For the same compound, the GI50 (A549) was > 100 µM (inactive), the GI50 (HOP-18) was > 100 µM (inactive) and the GI50 (SK-MEL-5) was > 100 µM (inactive). For the same compound, the GI50 (SK-MEL-2) was > 100 µM (inactive), the GI50 (LXFL 529) was > 100 µM (inactive) and the GI50 (SF-268) was > 100 µM (inactive). The GI50 (CAKI-1) was > 100 µM (inactive), the GI50 (K562) was > 100 µM (inactive) and the GI50 (RXF 393) was > 100 µM (inactive). The GI50 (LOX IMVI) was > 100 µM (inactive), the GI50 (OVCAR-8) was > 100 µM (inactive) and the GI50 (SR) was > 100 µM (inactive). For the same compound, the GI50 (HCT-116) was > 100 µM (inactive), the GI50 (TK-10) was > 100 µM (inactive) and the GI50 (NCI-H522) was > 100 µM (inactive). For the same compound, the GI50 (KM12) was > 100 µM (inactive), the GI50 (ACHN) was > 100 µM (inactive) and the GI50 (M19-MEL) was > 100 µM (inactive). For the same compound, the GI50 (SF-295) was > 100 µM (inactive), the GI50 (CCRF-CEM) was > 100 µM (inactive) and the GI50 (UACC-62) was > 100 µM (inactive). The GI50 (M14) was > 100 µM (inactive), the GI50 (OVCAR-3) was > 100 µM (inactive) and the GI50 (SNB-78) was > 100 µM (inactive). For the same compound, the GI50 (IGROV-1) was > 100 µM (inactive), the GI50 (MOLT-4) was > 100 µM (inactive) and the GI50 (HT-29) was > 100 µM (inactive).

For `N#C/C(=C/c1ccc2c(c1)OCO2)C(=O)c1ccccc1`, the GI50 (HCT-15) was over 100 µM, the GI50 (XF498) was > 100 µM (inactive) and the GI50 (NCI-H460) was > 100 µM (inactive). For the same compound, the GI50 (SK-OV-3) was > 100 µM (inactive), the GI50 (Malme-3M) was > 100 µM (inactive) and the GI50 (DLD-1) was > 100 µM (inactive). For the same compound, the GI50 (RPMI-8226) was > 100 µM (inactive), the GI50 (HOP-62) was > 100 µM (inactive) and the GI50 (SNB-75) was > 100 µM (inactive). The GI50 (SN12C) was > 100 µM (inactive), the GI50 (SK-MEL-28) was > 100 µM (inactive) and the GI50 (NCI-H23) was > 100 µM (inactive). For the same compound, the GI50 (UO-31) was > 100 µM (inactive), the GI50 (OVCAR-4) was > 100 µM (inactive) and the GI50 (U-251) was > 100 µM (inactive). For the same compound, the GI50 (SF-539) was > 100 µM (inactive), the GI50 (786-0) was > 100 µM (inactive) and the GI50 (EKVX) was > 100 µM (inactive). For the same compound, the GI50 (SNB-19) was > 100 µM (inactive), the GI50 (HCC 2998) was > 100 µM (inactive) and the GI50 (SW-620) was > 100 µM (inactive). The GI50 (UACC-257) was > 100 µM (inactive), the GI50 (A549) was > 100 µM (inactive) and the GI50 (HOP-18) was > 100 µM (inactive). For the same compound, the GI50 (SK-MEL-5) was > 100 µM (inactive), the GI50 (KM-20L2) was > 100 µM (inactive) and the GI50 (SK-MEL-2) was > 100 µM (inactive). For the same compound, the GI50 (LXFL 529) was > 100 µM (inactive), the GI50 (SF-268) was > 100 µM (inactive) and the GI50 (CAKI-1) was > 100 µM (inactive). For the same compound, the GI50 (K562) was > 100 µM (inactive), the GI50 (A498) was > 100 µM (inactive) and the GI50 (OVCAR-8) was > 100 µM (inactive). For the same compound, the GI50 (HCT-116) was > 100 µM (inactive), the GI50 (TK-10) was > 100 µM (inactive) and the GI50 (NCI-H522) was > 100 µM (inactive). The GI50 (KM12) was > 100 µM (inactive), the GI50 (ACHN) was > 100 µM (inactive) and the GI50 (M19-MEL) was > 100 µM (inactive). The GI50 (SF-295) was > 100 µM (inactive), the GI50 (CCRF-CEM) was > 100 µM (inactive) and the GI50 (UACC-62) was > 100 µM (inactive). For the same compound, the GI50 (M14) was > 100 µM (inactive), the GI50 (OVCAR-3) was > 100 µM (inactive) and the GI50 (SNB-78) was > 100 µM (inactive). For the same compound, the GI50 (COLO 205) was > 100 µM (inactive), the GI50 (IGROV-1) was > 100 µM (inactive) and the GI50 (OVCAR-5) was > 100 µM (inactive). The GI50 (MOLT-4) was > 100 µM (inactive) and the GI50 (HT-29) was > 100 µM (inactive).
